# Read-outs that look alike come from different tables or passages of the source.
# Columns and labels:
# [1] = system: HIV (strain NL4-3); test: HIV cell based assay (Level 1 / Level 2 Screen; CFAR assay): 293T transfection, TZM-bl infection, luciferase; design: species or system HIV-1; settings: for Anti-HIV bioactivity of hits and analogs: second round with analogs, FIGS. 12 A, B, C
# Description: Five hundred of the 1000 small molecule hits, having the highest binding affinity with the ASL's hypermodifications, were selected for screening at high concentration against HIV infected mammalian cells (FIG. 10). Briefly, toxicity was first assessed in 293T cells in 96-well plates (10^4 cells/well) by adding 50, 5 and 0.5 μM of small molecules in triplicate at each concentration. After two days, cells were assessed for poor growth versus control cells. Once the concentration of the small molecules at which the cells looked normal was established, these molecules were screened for anti-HIV activity through a transfection/infection protocol. An infectious molecular clone of HIV (strain NL4-3) was transfected into 293T cells using FuGene6 (Roche). After four hours, the cells were split into 96-well plates (10^4 cells/well) and the small molecules were added at the appropriate concentration in triplicate. After 48 hours of incubation of cells in the presence of the small molecules, virus-containing medium (50 μL) was removed from each well and transferred into a fresh 96-well plate containing TZM-bl cells for infection (10^4 cells/well). After 48 hours, the cells were assayed for luciferase expression. Controls were untransfected 293T cells and transfected cells without the small molecules added. Results from various small molecules with the best inhibition of HIV are shown in (FIG. 10). Active small molecules 2493, 9324, 8317, 2725, 3643, 2491, 12327, 14094, 12204, 12744, 12745, 12542, 18198, 18200, 8391, 6188, 16286 and 2712 have 80-95% inhibitory effect on the HIV propagation. These small molecules with bioactivity against HIV propagation are an example of some the hits further tested in a concentration-dependent screening.
# Bioactive molecules selected in Level 1 Screen were tested using the cell based assay in a concentration (dose)-dependent manner for their ability to inhibit HIV propagation (FIG. 11). The HIV cell based assay experimental protocol described in Level 1 screen was used to conduct the Level 2 Screen. […] In addition to the concentration-dependent, cell based assay, the inhibitory activities of the active molecules identified in Screen Level 1 were also assessed using the MBS assay. This assay has been developed and standardized to mimic the unique properties characteristic of the HIV viral protein recruitment and preparation of the human host tRNA3^Lys as primer of reverse transcription. Thus, the cell-based assay and the “MBS” assay were used to confirm the mechanism of action of the hits against the functional interaction of htRNA3^Lys with HIV proteins. The MBS is a “mix and measure” assay that consists of the formation of a complex between the fluorescent peptide P6 and the fully modified anticodon stem and loop of htRNA3^Lys. The concentration of the small molecules was 150 μM i.e. 300 fold of that of P6. […] In the presence of various selected active molecules, inhibition of the complex between P6 and hASL3^Lys was observed (FIGS. 12 A, B and C). The results of these experiments allowed identification and concentration towards a smaller pool of active molecules.
# In order to confirm the activity of the small molecules showing potential anti-HIV inhibition, a second round of testing using their analogs (˜20 analogs were chosen for each selected active small molecule) was initiated using the same cell based assay employed in Level 1 Screen and Level 2 Screen. […] The quality and structure of the small molecule hits and their respective analogs were confirmed by NMR and Liquid Chromatography coupled with Mass Spectrometry (LC-MS).
# Dose response data of the active molecules were generated by running the biochemical and functional assays at varying concentration. The potency properties which is one of the characteristics that defines a hit, is evaluated based on the criteria that potency (IC50)<3 μM in the MBS assay and EC50<10 μM in the HIV cell based assay (See FIG. 19). […]
# [2] = system: HIV strains NLA3, HXB and JR-CSF; test: HIV strain screening; format: cell-based; settings: FIG. 13
# Source text: Small molecules were also screened for their effectiveness against various HIV strains. For example, the effects of small molecules of interest on HIV strains NLA3, HXB and JR-CSF were studied. […] FIG. 13. Further, small molecules were screened for their effectiveness against other HIV drugs that have different modes of action. For example, various small molecules of interest in the initial screen were studied for their effectiveness relative to protease inhibitors (Saquinavir by Roche) and reverse-transciptase inhibitors (Nevirapine by Boehringer Ingelheim) against various strains, including tri-therapy resistant HIV strains. FIGS. 13 and 14. In one specific study, the effect of small molecules on cell culture HIV viral propagation was compared to no drug (by reviewing % Relative Luminescence Unit (RLU)). Small molecules were also compared to Saquinavir and Nevirapine in both standard HIV strain and Tri-therapy resistant HIV strains. FIG. 14.
# [3] = system: hASL3^Lys-mcm^5s^2U34;ms^2t^6A37;Ψ39; test: Mechanism based secondary (MBS) assay: competition with fluorescent peptide P6 for hASL3^Lys; format: binding, human; settings: complex formation in the absence of small molecules
# Source text: In order to identify a set of small molecule ‘hits’, that inhibit viral recruitment or viral preparation of htRNA3^Lys, the inventors developed a microtiter plate-based fluorescence assay. This mechanism based secondary (MBS) assay uses selected peptides that best mimic HIV proteins in their binding to htRNA3^Lys. The present invention uses the above-mentioned MBS assay to identify small molecule bioactive hits against a host cell RNA interaction with HIV proteins critical to viral replication. These hits can now be optimized into a completely different class of HIV drug, one that is far less likely to elicit drug resistance. The present invention is exploiting affinity selected peptides as tools to investigate and understand RNA chemistry and structure, including naturally occurring modifications, as identity elements for HIV protein recognition of the human tRNA3^Lys.
# MBS assay is based on phage display selected peptides that mimic HIV proteins by binding with high affinity and specificity to only the portion of the htRNA3^Lys of interest, the hASL3^Lys (Graham et al., J. Mol. Biol. 2011, 410(4):698-715; Vendeix et al., J. Mol. Biol. 2012, 416(4):467-85). […] The MBS assay is readily amenable to thermodynamic and structural analyses and nucleotide and peptide amino acid changes for optimization. […]
# [4] = system: hASL3^Lys; test: Circular dichroism of NCp7 and P6 complexes with hASL3^Lys; design: species or system human; settings: decrease in CD ellipticity with increasing amounts, FIG. 7
# [5] = target: hASL3^Lys-mcm^5s^2U34;ms^2t^6A37;Ψ39; test: Fluorescence quenching binding of P6 / NCp7 to fully modified hASL3^Lys; design: species or system human; settings: FIGS. 5 and 6
# Source text: (§1) The phage-display selection of peptides was completed (randomized 15 mers, and 16 mers with cysteines at two sites for the possible generation of Zn^+2 ‘knuckles’ structures reminiscent of the HIV protein, NCp7) against the fully modified anticodon stem and loop domain of htRNA3^Lys with 5-methoxycarbonylmethyl-2-thiouridine at position 34, 2-methylthio-N^6-threonylcarbamoyladenosine-37 and pseudouridine-39 (hASL3^Lys-mcm^5s^2U34;ms^2t^6A37;Ψ39) covalently attached to microtiter avidin-plates with biotin. In reiterative and competitive phage-display library selections, the two libraries yielded 20 recurring peptide sequences that had reasonable solubility among 155 sequenced clones (Table 2). The hASL3^Lys binding properties of the peptides were characterized using chemically synthesized peptides with an N-terminal fluorescent reporter. One strongly binding, highly specific peptide (P6) was selected. Its ability to mimic the binding of the natural HIV protein, NCp7, to modified htRNA3^Lys was validated. […] Footprinting of P6 on the modified hASL3^Lys by high resolution mass spectrometry indicated conclusively that the anticodon and 3′-adjacent side of the loop were protected (Graham et al., supra).
# [6] = target: unmodified ASL3^Lys; test: Fluorescence quenching binding of P6 / NCp7 to unmodified ASL3^Lys; design: species or system human; settings: modification-dependency
# Source text: as §1
# [7] = Human immunodeficiency virus 1, NL43, read-out: IC 50 (units)
molecule,measurement,setting,value
"CC(C)c1ccc(OCC(=O)N2C(C)CCCC2C)c(Br)c1 (stereo not shown) [Compound 1668-1, 2-(2-bromo-4-isopropylphenoxy)-1-(2,6-dimethylpiperidin-1-yl)ethanone]",IC50,[1]; [7],34 µM
"CC1CCCC(C)N1C(=O)COc1ccc(C(C)(C)C)cc1Br (stereo not shown) [Compound 1668-12, 2-(2-bromo-4-tert-butylphenoxy)-1-(2,6-dimethylpiperidin-1-yl)ethanone]",Anti-HIV bioactivity of hits and analogs,[1],showed potential anti-HIV inhibition
"CC1(C)CC(NC(=O)COc2ccc3ccccc3c2Br)CC(C)(C)N1 [Compound 1668-17, 2-(1-bromonapthalen-2-yloxy)-N-(2,2,6,6-tetramethylpiperidin-4-yl)acetamide]",Anti-HIV bioactivity of hits and analogs,[1],some of the most bioactive inhibitors
"Cc1cc(NC(=O)C(=O)NC2CC(C)(C)NC(C)(C)C2)ccc1Br [Compound 1668-18, N^1-(4-bromo-3-methylphenyl)-N^2-(2,2,6,6-tetramethylpiperidin-4-yl)oxalimide]",Anti-HIV bioactivity of hits and analogs,[1],some of the most bioactive inhibitors
same,Inhibiting infection of HIV strains relative to no addition of drug,[2],particularly effective
"NS(=O)(=O)c1cccc(NC(=O)Nc2ccc(Cl)c(Cl)c2)c1 [Compound 2491, 3-(3-(3,4-dichlorophenyl)ureido)benzenesulfon-amide]",IC50,"[1]; Human immunodeficiency virus 1, NL43, other small molecule table, assay not given, values lie in the CFAR range of b151, read-out: IC 50",75 µM
"COCCNC(=O)c1ccc2c(=O)n(CCC3=CCCCC3)c(=S)[nH]c2c1 [Compound 6188-1, 3-(2-cyclohexenylethyl)-N-(2-methoxyethyl)-4-oxo-2-thioxo-1,2,3,4-tetrahydroquinazoline-7-carboxamide]",IC50,"[1]; Human immunodeficiency virus 1, NL43, quinazoline table, assay not given, value lies in the CFAR range of b151, read-out: IC50",3.3 µM
"O=[N+]([O-])c1cccc(Nc2nc(O)nc(N3CCCCC3)n2)c1 [Compound 8391-5, 4-(3-nitrophenylamino)-6-(piperidin-1-yl)-1,3,5-triazin-2-ol]",Anti-HIV bioactivity of hits and analogs,[1],showed potential anti-HIV inhibition
"c1ccc(Nc2nc(Nc3ccccc3)nc(N3CCNCC3)n2)cc1 [Compound 8391-6, N^2,N^4-diphenyl-6-(piperazin-1-yl)-1,3,5-triazine-2,4-diamine]",IC50,[1]; [7],5.3 µM
"COc1cc2c(cc1OC)C1=C(C#N)CC/C(=N\C(=O)c3ccco3)N1CC2 [Compound 18200-2, (E)-N-(1-cyano-9,10-dimethoxy-6,7-dihydro-2H-pyrido[2,1-a]isoquinolin-4(3H)-ylidene)furan-2-carboxamide]",Anti-HIV bioactivity of hits and analogs,[1],some of the most bioactive inhibitors
"COc1cc2c(cc1OC)C1=C(C#N)CCC(=O)N1CC2 [Compound 18200-3, 9,10-dimethoxy-4-oxo-3,4,6,7-tetrahydro-2H-pyrido[2,1-a]isoquinoline-1-carbonitrile]",Anti-HIV bioactivity of hits and analogs,[1],some of the most bioactive inhibitors
"COc1cc2c(cc1OC)C1=C(C#N)CC/C(=N\C(=O)c3ccc(Cl)cc3)N1CC2 [Compound 18200-4, (E)-4-chloro-N-(1-cyano-9,10-dimethoxy-6,7-dihydro-2H-pyrido[2,1-a]isoquinolin-4(3H)-ylidene)benzamide]",IC50,"[1]; Human immunodeficiency virus 1, NL43, isoquinoline table, assay not given, value lies in the CFAR range of b151, read-out: IC 50",14 µM
RVTHHAFLGAHRTVG [Compound P6],Quenching of the fluorescence of the fluorescein-tagged P6 by hASL3^Lys,[3],~80%
same,Effect on hASL3^Lys structure by circular dichroism,[4],denature the hASL3^Lys structure
same,Kd,[5],0.45 ± 0.05 µM
same,Kd with unmodified ASL3^Lys,[6],incalculable

# Source: patent publication US9775835B2 (priority 2012, dated 2017)
